Test results as given in ChEMBL document CHEMBL5042481, “Structure-Based Optimization of ML300-Derived, Noncovalent Inhibitors Targeting the Severe Acute Respiratory Syndrome Coronavirus 3CL Protease (SARS-CoV-2 3CLpro)” (J Med Chem, 2022).
The source made the active and inactive calls. No cut-off for these calls is given here.

Assays:
SARS-CoV-2 [1] = test: Antiviral activity against SARS Cov-2 USA_WA1/2020 infected in Vero E6 cells expressing ACE2 reporter assessed as reduction in plaque formation at 0.21 to 50 uM and measured at 3 days post-infection by crystal violet staining based assay; assay type: functional, organism-based; settings: Severe acute respiratory syndrome coronavirus 2, USA_WA1/2020, Vero C1008, 72 h
SARS-CoV-2 [2] = test: Antiviral activity against SARS Cov-2 USA_WA1/2020 infected in Vero E6 cells expressing ACE2 reporter assessed as inhibition of viral cytopathic effect measured after 68 hrs post infection by neutral red uptake assay; assay type: functional, organism-based; settings: Severe acute respiratory syndrome coronavirus 2, USA_WA1/2020, Vero C1008, 68 h
[3] = system: Severe acute respiratory syndrome-related coronavirus; settings: 1, dose microM <=100, time 30.0 min
[4] = system: Severe acute respiratory syndrome coronavirus 2; settings: dose microM <=100, time 30.0 min
[5] = Protein binding in human plasma assessed as unbound fraction; assay type: ADME, cell-free
SARS-CoV-2 [6] = test: Cytotoxicity against SARS CoV-2 infected Vero E6 cells assessed as reduction in cell viability; assay type: toxicity; settings: chlorocebus sabaeus, vero c1008
CYP2C9 = CYP2C9 (Homo sapiens, UniProt P11712); test: Inhibition of CYP2C9 (unknown origin) at 10 uM relative to control; assay type: ADME
Sequence of CYP2C9 (P11712 whole entry): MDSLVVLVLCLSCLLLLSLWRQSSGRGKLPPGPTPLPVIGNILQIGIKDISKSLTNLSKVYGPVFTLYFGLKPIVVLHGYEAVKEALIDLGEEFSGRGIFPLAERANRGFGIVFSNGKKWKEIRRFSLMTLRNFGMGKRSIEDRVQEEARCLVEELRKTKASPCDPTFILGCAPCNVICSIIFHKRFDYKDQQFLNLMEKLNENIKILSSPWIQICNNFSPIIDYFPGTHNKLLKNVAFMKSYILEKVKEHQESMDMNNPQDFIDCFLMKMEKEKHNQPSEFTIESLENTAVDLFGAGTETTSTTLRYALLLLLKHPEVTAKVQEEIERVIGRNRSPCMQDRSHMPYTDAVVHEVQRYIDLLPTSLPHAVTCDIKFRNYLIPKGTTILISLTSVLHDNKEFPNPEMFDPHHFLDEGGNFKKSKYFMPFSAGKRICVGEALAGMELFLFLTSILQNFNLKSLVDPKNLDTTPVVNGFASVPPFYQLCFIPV

[7] = Protein binding in rat plasma assessed as unbound fraction; assay type: ADME, cell-free
[8] = Intrinsic clearance in human liver microsomes; assay type: ADME, Microsome; settings: read-out: CLH
[9] = Intrinsic clearance in rat liver microsomes; assay type: ADME, Microsome; settings: read-out: CLH
CYP2D6 = CYP2D6 (Homo sapiens, UniProt P10635); test: Inhibition of CYP2D6 (unknown origin) at 10 uM relative to control; assay type: ADME
Sequence of CYP2D6 (P10635 whole entry): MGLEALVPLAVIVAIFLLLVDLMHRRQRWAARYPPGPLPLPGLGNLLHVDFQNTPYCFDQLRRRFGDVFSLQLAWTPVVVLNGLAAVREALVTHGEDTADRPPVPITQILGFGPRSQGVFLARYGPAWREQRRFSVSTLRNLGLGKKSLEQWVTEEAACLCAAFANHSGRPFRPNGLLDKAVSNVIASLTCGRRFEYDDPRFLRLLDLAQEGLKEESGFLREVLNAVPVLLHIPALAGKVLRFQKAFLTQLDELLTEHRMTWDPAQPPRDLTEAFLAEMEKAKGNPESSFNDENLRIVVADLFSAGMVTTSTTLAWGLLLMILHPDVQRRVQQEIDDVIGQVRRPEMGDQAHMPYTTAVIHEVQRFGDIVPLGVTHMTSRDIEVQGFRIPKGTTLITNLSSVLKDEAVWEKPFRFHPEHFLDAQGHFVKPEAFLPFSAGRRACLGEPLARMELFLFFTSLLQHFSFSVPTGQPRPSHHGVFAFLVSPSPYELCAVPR

CYP3A4 = CYP3A4 (Homo sapiens, UniProt P08684); test: Inhibition of CYP3A4 (unknown origin) at 10 uM relative to control; assay type: ADME
Sequence of CYP3A4 (P08684 whole entry): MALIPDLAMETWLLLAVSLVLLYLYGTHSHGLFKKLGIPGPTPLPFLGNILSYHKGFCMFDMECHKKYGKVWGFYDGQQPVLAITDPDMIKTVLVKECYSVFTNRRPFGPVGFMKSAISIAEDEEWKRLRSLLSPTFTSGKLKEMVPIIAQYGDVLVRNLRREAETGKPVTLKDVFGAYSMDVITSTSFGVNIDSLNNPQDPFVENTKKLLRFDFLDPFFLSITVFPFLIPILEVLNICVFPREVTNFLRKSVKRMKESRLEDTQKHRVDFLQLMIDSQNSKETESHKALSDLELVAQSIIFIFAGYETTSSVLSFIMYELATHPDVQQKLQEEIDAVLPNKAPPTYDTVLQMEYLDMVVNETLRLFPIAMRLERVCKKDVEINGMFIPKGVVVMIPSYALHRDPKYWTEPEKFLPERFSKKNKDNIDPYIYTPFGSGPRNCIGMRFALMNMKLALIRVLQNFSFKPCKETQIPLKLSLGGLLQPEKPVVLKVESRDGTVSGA

[10] = Apparent passive permeability in MDCK-MDR1 cells; assay type: ADME, cell-based, Canis lupus familiaris; settings: dog
[11] = Intrinsic clearance in human liver S9 fraction at 25 uM incubated for 1 hr in presence of NADPH by LC-MS/MS analysis; assay type: ADME, subcellular; settings: read-out: CLH

For CCC(CC)COC(=O)[C@H](C)NP(=O)(OC[C@H]1O[C@@](C#N)(c2ccc3c(N)ncnn23)[C@H](O)[C@@H]1O)Oc1ccccc1 (single isomer, unassigned), the EC50 (SARS-CoV-2 [1]) was 0.43 µM and the EC50 (SARS-CoV-2 [2]) was 0.34 µM.

With O=C(Cn1nnc2ccccc21)N(Cc1ccsc1)c1ccc(-c2ccccc2)cc1 the inhibition [3] was “inactive” and the inhibition [4] was “inactive”.

In the case of O=C(Cn1nnc2ccccc21)N(Cc1ccsc1)c1ccc(-c2cccnc2)cc1, the inhibition [3] is reported as “Active”, the inhibition [4] is reported as “Active” and the EC50 (SARS-CoV-2 [1]) is reported as 14.6 µM. It also gave an EC50 (SARS-CoV-2 [2]) of 12.1 µM.

Compound O=C(Cn1nnc2ccccc21)N(Cc1cccc(Cl)c1)c1ccc(-c2cccnc2)cc1 has an EC50 (SARS-CoV-2 [1]) of 11.1 µM and an EC50 (SARS-CoV-2 [2]) of 7.61 µM.

Work on COc1cc(-c2cn[nH]c2)ccc1N(Cc1cccc(Cl)c1)C(=O)Cn1nnc2ccccc21 yielded an EC50 (SARS-CoV-2 [1]) of 2.01 µM and an EC50 (SARS-CoV-2 [2]) of 2.3 µM.

O=C(Cn1nnc2ccccc21)N(Cc1cccc(Cl)c1)c1ccc(-c2cn[nH]c2)nc1 showed an EC50 (SARS-CoV-2 [1]) of 4.65 µM and an EC50 (SARS-CoV-2 [2]) of 3.81 µM.

With COc1cc(N(Cc2cccc(Cl)c2)C(=O)Cn2nnc3ccccc32)ccc1-c1cn[nH]c1 the EC50 (SARS-CoV-2 [1]) was 3.24 µM and the EC50 (SARS-CoV-2 [2]) was 2.93 µM.

Work on O=C(Cn1nnc2ccccc21)N(Cc1ccsc1)c1ccc(-c2c[nH]cn2)cc1 yielded a fraction unbound [5] of 0.01, an EC50 (SARS-CoV-2 [1]) of 1.75 µM and an EC50 (SARS-CoV-2 [2]) of 1.74 µM.

With O=C(Cn1nnc2ccccc21)N(Cc1cccc(Cl)c1)c1ccc(-c2c[nH]cn2)cc1 the CC50 (SARS-CoV-2 [6]) was greater than 50 µM, the inhibition at 10 µM (CYP2C9) was 100% and the fraction unbound [7] was 0.018. The CLint scaled [8] was 141 mL/min/kg, the CLint scaled [9] was 589 mL/min/kg and the inhibition at 10 µM (CYP2D6) was 87%. For the same compound, the inhibition at 10 µM (CYP3A4) was 100%, the Papp [10] was 46.1 ×10⁻⁶ cm/s and the fraction unbound [5] was 0.007.

O=C(Nc1ccc(N(Cc2ccsc2)C(=O)Cn2nnc3ccccc32)cc1)C1CC1 showed an EC50 (SARS-CoV-2 [1]) of 28.2 µM and an EC50 (SARS-CoV-2 [2]) of 19.9 µM.

Work on O=C(Cn1nnc2ccccc21)N(Cc1cccc(Cl)c1)c1ccc(-c2cn[nH]c2)cc1 yielded an inhibition at 10 µM (CYP2C9) of 99%, a CLint scaled [8] of 2620 mL/min/kg and a CLint scaled [9] of 5670 mL/min/kg. It also gave an inhibition at 10 µM (CYP2D6) of 63%, an inhibition at 10 µM (CYP3A4) of 96% and a Papp [10] of 39.4 ×10⁻⁶ cm/s. It also gave a fraction unbound [5] of 0.001, a CLint scaled at 25 µM [11] of 436 mL/min/kg and an EC50 (SARS-CoV-2 [1]) of 3.31 µM. It also gave an EC50 (SARS-CoV-2 [2]) of 1.98 µM.

O=C(Cn1nnc2ccccc21)N(Cc1cccc(Cl)c1)c1ccc(-c2ccc[nH]c2=O)cc1 gave an EC50 (SARS-CoV-2 [1]) of 16.7 µM and an EC50 (SARS-CoV-2 [2]) of 8.77 µM.

Work on O=C(Cc1cncnc1)N(Cc1cccc(Cl)c1)c1ccc(-c2cn[nH]c2)cc1 yielded an inhibition at 10 µM (CYP2C9) of 92%, a fraction unbound [7] of 0.11 and a CLint scaled [8] of 620 mL/min/kg. It also gave a CLint scaled [9] of 3300 mL/min/kg, an inhibition at 10 µM (CYP2D6) of 26% and an inhibition at 10 µM (CYP3A4) of 88%. For the same compound, the Papp [10] was 66.7 ×10⁻⁶ cm/s, the fraction unbound [5] was 0.018 and the CLint scaled at 25 µM [11] was 145 mL/min/kg.

In the case of O=C(Cc1cccnc1)N(Cc1cccc(Cl)c1)c1ccc(-c2cn[nH]c2)cc1, the inhibition at 10 µM (CYP2C9) is reported as 99%, the fraction unbound [7] is reported as 0.035 and the CLint scaled [8] is reported as 981 mL/min/kg. It also gave a CLint scaled [9] of 3560 mL/min/kg, an inhibition at 10 µM (CYP2D6) of 55% and an inhibition at 10 µM (CYP3A4) of 99%. It also gave a Papp [10] of 61.8 ×10⁻⁶ cm/s, a fraction unbound [5] of 0.004 and a CLint scaled at 25 µM [11] of 256 mL/min/kg.

With O=C(Cn1nnc2ccccc21)N(Cc1cccc(Cl)c1)c1ccc(-c2cn[nH]c2)cn1 the EC50 (SARS-CoV-2 [1]) was 3.39 µM and the EC50 (SARS-CoV-2 [2]) was 1.91 µM.
